Results published in US4778816A, “Anti-asthmatic composition and process for preparing the same” (Wakamoto Pharmaceutical Co., Ltd., priority 1984, dated 1988).

Tests used:
release of histamine [1] = assay: Inhibitory effect on the release of histamine from guinea pig lung slices (Test Example 1); type: cell-based; details: for Histamine release-inhibition rate: average of three measurements
release of SRS-A [2] = assay: Inhibitory effect on the release of SRS-A from guinea pig lung slices (Test Example 1); type: cell-based; details: for SRS-A release-inhibition rate: average of three measurements
release of histamine [3] = assay: Inhibitory effect on the release of histamine from rhesus monkey lung slices (Test Example 2); type: cell-based; details: average of three measurements
Experimental: (§1) Inhibitory effect of MTB on the release of histamine and SRS-A from rhesus monkey lung slices
(§2) Rhesus monkey lungs were cut into slices, which were passively sensitized with human atopy blood serum.
(§3) Thereafter the test was conducted in the same manner as in Test Example 1 to compare the histamine and SRS-A release-inhibition effect of the present medicine MTB with that of the known medicine DSCG.

release of SRS-A [4] = assay: Inhibitory effect on the release of SRS-A from rhesus monkey lung slices (Test Example 2); type: cell-based; details: average of three measurements
Experimental: as §1, §2, §3

release of histamine [5] = assay: Inhibitory effect on the release of histamine from human lung slices (Test Example 3); type: cell-based; details: average of three measurements
Experimental: (§4) Inhibitory effect of MTB on the release of histamine and SRS-A from human lung slices
(§5) A macrographically normal portion was sampled from a human lung excised in a lung cancer operation and was passively sensitized with human atopy blood serum in a similar manner to the case of the rhesus monkey lung slices mentioned above. Thereafter the histamine and SRS-A release-inhibiting effect of the test medicines was measured in the same manner as in Test Example 1.

release of SRS-A [6] = assay: Inhibitory effect on the release of SRS-A from human lung slices (Test Example 3); type: cell-based; details: average of three measurements
Experimental: as §4, §5

experimental asthma = assay: Effect of preventing experimental asthma (Test Example 4); type: in vivo, guinea pig; details: 250 mg/kg oral; for Tidal volume-decrease rate: 60 min before causing asthma, average of seven
Acute toxicity in mouse = assay: Acute toxicity in mouse; set-up: species or system Mouse (ddy); details: in vivo, read-out: Acute toxicity LD 50
Text: (§6) Animals tested were as follows.
Mouse: ddy, weight 20-23 g, 20 mice per group

Acute toxicity in rat = assay: Acute toxicity in rat; set-up: species or system Rat (wistar); details: in vivo, read-out: Acute toxicity LD 50
Text: as §6
Rat: wistar, weight 110-130 g 10 rats per group

Acute toxicity in dog = type: in vivo, Dog (beagle); details: in vivo, po; dog male, p.o.; read-out: Acute toxicity LD 50
Text: as §6
(§7) Dog: beagle, weight 8 kg, 3 dogs per group

Dog = assay: Acute toxicity in dog; type: in vivo, Dog (beagle); details: dog female, p.o.
Text: as §6, §7

[7] = Solubility of MTB original powder in water; type: physicochemical
[8] = Differential thermal scanning calorimeter measurement of crystal structure; type: physicochemical; details: DSC 30 type, Shimadzu
Text: From this observation, it has been confirmed that the treatment with the non-aqueous solvent in the new preparation process not only increases the mixing efficiency but also brings about a change in the crystal structure itself of MTB.

release of histamine [9] = details: Japanese Journal of Pharmacology, Vol. 32, pages 689-697, 1982; cited from earlier work

Work on O=C(O)c1cc(=O)c2c(OCC(O)COc3cccc4oc(C(=O)O)cc(=O)c34)cccc2o1 [DSCG, disodium cromoglicate, reference compound] yielded a Histamine release-inhibition rate (release of histamine [1]; 10^-4 g/ml) of 2%, a Histamine release-inhibition rate (release of histamine [1]; 10^-5 g/ml) of 0% and an SRS-A release-inhibition rate (release of SRS-A [2]; 10^-4 g/ml) of 13%. The SRS-A release-inhibition rate (release of SRS-A [2]; 10^-5 g/ml) was 9%, the Histamine release-inhibition rate (release of histamine [3]; 10^-4 g/ml) was 0% and the Histamine release-inhibition rate (release of histamine [3]; 10^-5 g/ml) was 0%. It also gave an SRS-A release-inhibition rate (release of SRS-A [4]; 10^-4 g/ml) of 2%, an SRS-A release-inhibition rate (release of SRS-A [4]; 10^-5 g/ml) of 0% and a Histamine release-inhibition rate (release of histamine [5]; 10^-4 g/ml) of 18%. The Histamine release-inhibition rate (release of histamine [5]; 10^-5 g/ml) was 13%, the SRS-A release-inhibition rate (release of SRS-A [6]; 10^-4 g/ml) was 39% and the SRS-A release-inhibition rate (release of SRS-A [6]; 10^-5 g/ml) was 41%.

For CCCCOC(=O)C(=O)Nc1cccc(-c2nnn[nH]2)c1 [MTB, 5-(3-n-butyloxalyl-aminophenyl) tetrazole], the “histamine release-inhibition rate compared with DSCG and N-5' (in words)” value (release of histamine [1]) was “remarkably high”, the Histamine release-inhibition rate (release of histamine [1]; 10^-4 g/ml) was 37% and the Histamine release-inhibition rate (release of histamine [1]; 10^-5 g/ml) was 30%. For the same compound, the Histamine release-inhibition rate (release of histamine [1]; 10^-6 g/ml) was 14%, the Histamine release-inhibition rate (release of histamine [1]; 10^-7 g/ml) was 6% and the Histamine release-inhibition rate (release of histamine [1]; 10^-8 g/ml) was 8%. The “SRS-A release-inhibition rate compared with DSCG and N-5' (in words)” value (release of SRS-A [2]) was “remarkably high”, the SRS-A release-inhibition rate (release of SRS-A [2]; 10^-4 g/ml) was 64% and the SRS-A release-inhibition rate (release of SRS-A [2]; 10^-5 g/ml) was 66%. For the same compound, the SRS-A release-inhibition rate (release of SRS-A [2]; 10^-6 g/ml) was 49%, the SRS-A release-inhibition rate (release of SRS-A [2]; 10^-7 g/ml) was 28% and the SRS-A release-inhibition rate (release of SRS-A [2]; 10^-8 g/ml) was 2%. For the same compound, the Histamine release-inhibition rate (release of histamine [3]; 10^-4 g/ml) was 27%, the Histamine release-inhibition rate (release of histamine [3]; 10^-5 g/ml) was 2% and the Histamine release-inhibition rate (release of histamine [3]; 10^-6 g/ml) was 12%. It also gave a Histamine release-inhibition rate (release of histamine [3]; 10^-7 g/ml) of 0%, an SRS-A release-inhibition rate (release of SRS-A [4]; 10^-4 g/ml) of 16% and an SRS-A release-inhibition rate (release of SRS-A [4]; 10^-5 g/ml) of 17%. The SRS-A release-inhibition rate (release of SRS-A [4]; 10^-6 g/ml) was 18%, the SRS-A release-inhibition rate (release of SRS-A [4]; 10^-7 g/ml) was 0% and the Histamine release-inhibition rate (release of histamine [5]; 10^-4 g/ml) was 27%. It also gave a Histamine release-inhibition rate (release of histamine [5]; 10^-5 g/ml) of 23%, a Histamine release-inhibition rate (release of histamine [5]; 10^-6 g/ml) of 23% and a Histamine release-inhibition rate (release of histamine [5]; 10^-7 g/ml) of 8%. The Histamine release-inhibition rate (release of histamine [5]; 10^-8 g/ml) was 0%, the SRS-A release-inhibition rate (release of SRS-A [6]; 10^-4 g/ml) was 47% and the SRS-A release-inhibition rate (release of SRS-A [6]; 10^-5 g/ml) was 47%. For the same compound, the SRS-A release-inhibition rate (release of SRS-A [6]; 10^-6 g/ml) was 43%, the SRS-A release-inhibition rate (release of SRS-A [6]; 10^-7 g/ml) was 31% and the SRS-A release-inhibition rate (release of SRS-A [6]; 10^-8 g/ml) was 2%. For the same compound, the Tidal volume-decrease rate (experimental asthma; 0 min) was 0%, the “decrease in unit tidal volume compared with control and N-5' (in words)” value (experimental asthma) was “remarkably low rate of decrease in unit tidal volume” and the Tidal volume-decrease rate (experimental asthma; 1 min) was 17%. For the same compound, the Tidal volume-decrease rate (experimental asthma; 2 min) was 17%, the Tidal volume-decrease rate (experimental asthma; 3 min) was 21% and the Tidal volume-decrease rate (experimental asthma; 4 min) was 23%. The Tidal volume-decrease rate (experimental asthma; 5 min) was 21%, the Tidal volume-decrease rate (experimental asthma; 6 min) was 22% and the Tidal volume-decrease rate (experimental asthma; 8 min) was 21%. It also gave a Tidal volume-decrease rate (experimental asthma; 10 min) of 21%, a Tidal volume-decrease rate (experimental asthma; 15 min) of 14% and a Tidal volume-decrease rate (experimental asthma; 20 min) of 19%. For the same compound, the Tidal volume-decrease rate (experimental asthma; 30 min) was 15%, the LD50 (Acute toxicity in mouse; ip, mouse female, i.p.) was 1160 mg/kg and the LD50 (Acute toxicity in mouse; ip, mouse male, i.p.) was 1120 mg/kg. For the same compound, the LD50 (Acute toxicity in mouse; iv, mouse female, i.v.) was 1220 mg/kg, the LD50 (Acute toxicity in mouse; iv, mouse male, i.v.) was 1130 mg/kg and the LD50 (Acute toxicity in mouse; po, mouse female, p.o.) was > 4000 mg/kg. For the same compound, the LD50 (Acute toxicity in mouse; po, mouse male, p.o.) was > 4000 mg/kg, the LD50 (Acute toxicity in mouse; sc, mouse female, s.c.) was > 4000 mg/kg and the LD50 (Acute toxicity in mouse; sc, mouse male, s.c.) was > 4000 mg/kg. The LD50 (Acute toxicity in rat; ip, rat female, i.p.) was 1430 mg/kg, the LD50 (Acute toxicity in rat; ip, rat male, i.p.) was 1430 mg/kg and the LD50 (Acute toxicity in rat; iv, rat female, i.v.) was 1160 mg/kg. The LD50 (Acute toxicity in rat; iv, rat male, i.v.) was 1110 mg/kg, the LD50 (Acute toxicity in rat; po, rat female, p.o.) was > 4000 mg/kg and the LD50 (Acute toxicity in rat; po, rat male, p.o.) was > 4000 mg/kg. The LD50 (Acute toxicity in rat; sc, rat female, s.c.) was > 4000 mg/kg, the LD50 (Acute toxicity in rat; sc, rat male, s.c.) was > 4000 mg/kg and the LD50 (Acute toxicity in dog) was > 4000 mg/kg. The “Acute toxicity LD 50” value (Dog) was > 4000 mg/kg, the “solubility in water (in words)” value [7] was “practically insoluble in water” and the “peak of absorption indicating the crystal structure (DSC)” value [8] was “shows a peak of absorption indicating the crystal structure”. The “anti-allergic action (in words)” value (release of histamine [9]) was “anti-allergic action, inhibiting the release of histamine”.

For COc1ccc(/C=C/C(=O)Nc2ccccc2C(=O)O)cc1OC [N-5', tranilast, reference compound], the Histamine release-inhibition rate (release of histamine [1]; 10^-4 g/ml) was 16%, the Histamine release-inhibition rate (release of histamine [1]; 10^-5 g/ml) was 5% and the SRS-A release-inhibition rate (release of SRS-A [2]; 10^-4 g/ml) was 54%. It also gave an SRS-A release-inhibition rate (release of SRS-A [2]; 10^-5 g/ml) of 11%, a Histamine release-inhibition rate (release of histamine [5]; 10^-4 g/ml) of 31% and a Histamine release-inhibition rate (release of histamine [5]; 10^-5 g/ml) of 16%. The SRS-A release-inhibition rate (release of SRS-A [6]; 10^-4 g/ml) was 37%, the SRS-A release-inhibition rate (release of SRS-A [6]; 10^-5 g/ml) was 32% and the Tidal volume-decrease rate (experimental asthma; 0 min) was 0%. It also gave a Tidal volume-decrease rate (experimental asthma; 1 min) of 26%, a Tidal volume-decrease rate (experimental asthma; 2 min) of 24% and a Tidal volume-decrease rate (experimental asthma; 3 min) of 24%. For the same compound, the Tidal volume-decrease rate (experimental asthma; 4 min) was 26%, the Tidal volume-decrease rate (experimental asthma; 5 min) was 23% and the Tidal volume-decrease rate (experimental asthma; 6 min) was 25%. It also gave a Tidal volume-decrease rate (experimental asthma; 8 min) of 28%, a Tidal volume-decrease rate (experimental asthma; 10 min) of 24% and a Tidal volume-decrease rate (experimental asthma; 15 min) of 27%. For the same compound, the Tidal volume-decrease rate (experimental asthma; 20 min) was 22% and the Tidal volume-decrease rate (experimental asthma; 30 min) was 19%.
